Broadly, the EC50 is the concentration at which the effect is half-maximal.

The results in this text go back to patent publication US9789082B2, “Somatostatin receptor subtype 4 (SSTR4) agonists” (Centrexion Therapeutics Corporation, priority 2013, dated 2017).

Series [1] is described as follows: Metabolic stability in pooled human liver microsomes (half-life). Format: in vitro ADME. Conditions: 1 μM test compound; for half-life at 1 μM: pooled human liver microsomes, pH 7.6, 37° C., read-out: Half-life t1/2. The protocol: The metabolic stability of the compounds according to the invention may be investigated as follows:
The metabolic degradation of the test compound is assayed at 37° C. with pooled human liver microsomes. The final incubation volume of 100 μl per time point contains TRIS buffer pH 7.6 at room temperature (0.1 M), magnesium chloride (5 mM), microsomal protein (1 mg/mL) and the test compound at a final concentration of 1 μM. Following a short preincubation period at 37° C., the reactions are initiated by addition of beta-nicotinamide adenine dinucleotide phosphate, reduced form (NADPH, 1 mM), and terminated by transferring an aliquot into solvent after different time points. After centrifugation (10000 g, 5 min), an aliquot of the supernatant is assayed by LC-MS/MS for the amount of parent compound. The half-life is determined by the slope of the semi-logarithmic plot of the concentration-time profile.
A general note: Microsomes from liver hold many membrane-bound enzymes, among them those of drug oxidation.

Series [2] has as its target human Somatostatin 4 receptor (SSTR4) (Homo sapiens (Human), UniProt P31391). Description: cAMP assay with human somatostatin 4 receptor (hSSTR4 expressing H4 cells). Format: cell-based. Conditions: cAMP assay, read-out: SSTR4 agonism EC50. The protocol: Camp Assay Method Description for cAMP Assay with Human Somatostatin 4 Receptor
The activation of the SSTR4 receptor (Gi coupled) causes an inhibition of intracellular cAMP after stimulation with Forskolin, which can be quantifiable by use of a suitable assay Kit and an adequate plate reader. This technique is used to characterize pharmacological effects of the SSTR4 receptor agonists by use of hSSTR4 expressing H4 cells.
Compounds are dissolved and diluted in DMSO. The final test solution contains 1% DMSO. […] Cells are centrifuged and suspended in assay buffer (incl. 1:100 diluted Alexa antibody).
For the assay 5 μl of a cell suspension (approximately 5000 cells/well)—incl. Alexa antibody (diluted 1:100) are added into a 384 well MTP microtitre plate excepting one row or column (depending on the plate layout), which is reserved for the standard curve. Then 2 μl of compound sample is added as concentration response curve (e.g. 1e-5 M to 6e-10 M), usually in triplicates. Each assay contains incubations with vehicle controls instead of compound as controls for non-inhibited cAMP generation (100% CTL; ‘high values’) and incubations with 1 μM Somatosatin as controls for full inhibition and background (0% CTL; […]). […] Then the plates are shaken briefly and incubated for 60 min at room temperature. After 60 min 10 μl of the detection mix is added into all wells followed by an additional incubation period of 1 h. The plates are read in a suitable plate reader.
From this ratio, cAMP concentrations are calculated from standard curve and the EC50 is estimated by least square curve fit program.
The EC50 values were obtained with the aid of the above described cAMP ASSAY.

human Somatostatin 4 receptor (SSTR4), sequence (P31391 whole entry): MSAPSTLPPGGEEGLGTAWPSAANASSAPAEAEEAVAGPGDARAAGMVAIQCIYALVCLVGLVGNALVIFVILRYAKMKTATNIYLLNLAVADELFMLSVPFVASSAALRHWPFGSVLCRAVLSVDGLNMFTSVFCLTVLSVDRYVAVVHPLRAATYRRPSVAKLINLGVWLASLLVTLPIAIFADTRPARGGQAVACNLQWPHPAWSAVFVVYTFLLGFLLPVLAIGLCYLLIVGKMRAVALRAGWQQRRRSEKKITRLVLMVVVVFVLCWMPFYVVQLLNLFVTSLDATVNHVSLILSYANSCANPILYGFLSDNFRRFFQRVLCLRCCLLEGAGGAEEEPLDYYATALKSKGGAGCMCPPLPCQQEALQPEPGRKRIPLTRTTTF

Regarding `Cc1nc(C(C)(C)NC(=O)[C@H]2[C@@H]3CNC[C@@H]32)n2ccccc12` [Example 45], the half-life at 1 μM in series [1] is over 2.17 h. The EC50 in series [2] is 1.2 nM.

For `Cc1cc(F)cnc1OCC(C)(C)NC(=O)[C@H]1[C@@H]2CNC[C@@H]21` [Example 48], the half-life at 1 μM in series [1] is over 2.17 h. Further, in series [2], the EC50 amounted to 3.7 nM.

As to `CC(C)(NC(=O)[C@H]1[C@@H]2CNC[C@@H]21)c1noc2ccccc12` [Example 51], the half-life at 1 μM in series [1] is over 2.17 h. Besides, the EC50 in series [2] was found to be 7.4 nM.

As to `CC(C)(COc1ncccc1C(F)(F)F)NC(=O)[C@H]1[C@@H]2CNC[C@@H]21` [Example 52], the half-life at 1 μM in series [1] is over 2.17 h. The EC50 in series [2] amounted to 2.4 nM.

As to `CC(C)(COc1cnc(Cl)c2ccccc12)NC(=O)[C@H]1[C@@H]2CNC[C@@H]21` [Example 53], in series [1], the half-life at 1 μM came to 0.783 h. The EC50 in series [2] is 9.8 nM.

As to `CC(C)(COc1cnccc1C1CC1)NC(=O)[C@H]1[C@@H]2CNC[C@@H]21` [Example 57], the half-life at 1 μM in series [1] is over 2.17 h. The EC50 in series [2] was determined as 16.3 nM.

On to `CC(C)(COc1nnccc1C(F)(F)F)NC(=O)[C@H]1[C@@H]2CNC[C@@H]21` [Example 58], for which, in series [1], the half-life at 1 μM is over 2.17 h. Moreover, the EC50 in series [2] stood at 22 nM.

On to `Cc1ccccc1OCC(C)NC(=O)[C@H]1[C@@H]2CNC[C@@H]21.Cl` (stereo partly shown) [Example 59], for which the half-life at 1 μM in series [1] is over 2.17 h. For the same compound, the EC50 in series [2] is 64.3 nM.

Turning to `Cl.Cn1nccc1OCC(C)(C)NC(=O)[C@H]1[C@@H]2CNC[C@@H]21` [Example 60], in series [1], the half-life at 1 μM was over 2.17 h. In addition, the EC50 in series [2] was found to be 76.9 nM.

As for `CC(C)(COc1ncccc1C1CC1)NC(=O)[C@H]1[C@@H]2CNC[C@@H]21` [Example 64], in series [1], the half-life at 1 μM was over 2.17 h. Moreover, the EC50 in series [2] was determined as 2 nM.

As to `Cc1cc(C2CC2)ccc1OCC(C)(C)NC(=O)[C@H]1[C@@H]2CNC[C@@H]21` [Example 65], in series [1] (37° C.), the “Half-life t1/2” value is over 2.17 h. Besides, the EC50 in series [2] came to 29.8 nM.

Regarding `Cc1ccnnc1OCC(C)(C)NC(=O)[C@H]1[C@@H]2CNC[C@@H]21.Cl` [Example 67], the half-life at 1 μM in series [1] was over 2.17 h. The EC50 in series [2] stood at 66.3 nM.

Regarding `CC(C)(NC(=O)[C@H]1[C@@H]2CNC[C@@H]21)c1ncc2ccccn12.Cl` [Example 68], the half-life at 1 μM in series [1] was over 2.17 h. In series [2], the EC50 was 4.7 nM.

As for `CC(C)(COc1ccccc1C1CC1)NC(=O)[C@H]1[C@@H]2CNC[C@@H]21` [Example 70], the half-life at 1 μM in series [1] is over 2.17 h. The concentration giving a half-maximal response (EC50) in series [2] is 5.7 nM.

Take `Cc1ccccc1OCC(C)(C)NC(=O)[C@H]1[C@@H]2CN(C)C[C@@H]21.Cl` [Example 71]: the half-life at 1 μM in series [1] is 2 h. The EC50 in series [2] turned out to be 26.9 nM.

In the case of `Cn1nc(C(C)(C)NC(=O)[C@H]2[C@@H]3CNC[C@@H]32)c2c(F)cccc21` [Example 74], the half-life at 1 μM in series [1] was found to be 0.6 h. Moreover, the half-maximal effective concentration (EC50) in series [2] worked out at 1.6 nM.

As for `Cn1nc(C(C)(C)NC(=O)[C@H]2[C@@H]3CNC[C@@H]32)c2ccc(F)cc21` [Example 75], the half-life at 1 μM in series [1] was over 2.17 h. Further, in series [2], the EC50 was determined as 0.4 nM.

As to `Cn1nc(C(C)(C)NC(=O)[C@H]2[C@@H]3CNC[C@@H]32)c2cccc(C(F)(F)F)c21` [Example 76], the half-life at 1 μM in series [1] was over 2.17 h. Further, in series [2], the 50% effective concentration (EC50) came to 0.8 nM.

With `Cc1ccc(C(C)(C)NC(=O)[C@H]2[C@@H]3CNC[C@@H]32)n2ccnc12` [Example 83], in series [1], the half-life at 1 μM was over 2.17 h. For the same compound, the EC50 in series [2] came to 11 nM.

As for `CC(C)(NC(=O)[C@H]1[C@@H]2CNC[C@@H]21)c1cc2ccccn2c1` [Example 87], in series [1], the half-life at 1 μM was over 2.17 h. In addition, the EC50 in series [2] was 22.9 nM.

On to `Cc1cccc2c(C(C)(C)NC(=O)[C@H]3[C@@H]4CNC[C@@H]43)ncnc12` [Example 88], for which the half-life at 1 μM in series [1] is over 2.17 h. The concentration for a half-maximal effect (EC50) in series [2] was 0.8 nM.

As to `CCn1nc(C(C)(C)NC(=O)[C@H]2[C@@H]3CNC[C@@H]32)c2ccccc21` [Example 95], the half-life at 1 μM in series [1] was over 2.17 h. Moreover, the EC50 in series [2] was determined as 3.6 nM.

`CC(C)(NC(=O)[C@H]1[C@@H]2CNC[C@@H]21)c1noc2c(C(F)(F)F)cccc12` [Example 102]: the half-life at 1 μM in series [1] was over 2.17 h. Further, the EC50 in series [2] is 2.3 nM.

With `Cn1nc(C(C)(C)NC(=O)[C@H]2[C@@H]3CNC[C@@H]32)c2cccc(F)c21` [Example 105], in series [1], the half-life at 1 μM was over 2.17 h. Also, the EC50 in series [2] came out at 0.4 nM.

Consider `CC(C)(NC(=O)[C@H]1[C@@H]2CNC[C@@H]21)c1n[nH]c2c(F)cccc12` [Example 109], for which the half-life at 1 μM in series [1] is over 2.17 h. The EC50 in series [2] came out at 0.3 nM.

Consider `CC(NC(=O)[C@H]1[C@@H]2CNC[C@@H]21)c1nn(C)c2ccccc12` (stereo partly shown) [Example 111], for which the half-life at 1 μM in series [1] was over 2.17 h. Besides, the EC50 in series [2] amounted to 14.5 nM.

On to `CC(NC(=O)[C@H]1[C@@H]2CNC[C@@H]21)c1nn(C)c2c(Cl)cccc12` (stereo partly shown) [Example 114], for which the half-life at 1 μM in series [1] is over 2.17 h. In addition, the EC50 in series [2] was 4.7 nM.

Turning to `CC(C)(NC(=O)[C@H]1[C@@H]2CNC[C@@H]21)c1nc(C2CC2)c2ccccn12.Cl` [Example 120], in series [1], the half-life at 1 μM was over 2.17 h. Also, the EC50 in series [2] is 1.9 nM.

For `Cc1cccn2c(C(C)(C)NC(=O)[C@H]3[C@@H]4CNC[C@@H]43)nc(C(F)(F)F)c12.Cl` [Example 129], in series [1], the half-life at 1 μM was over 2.17 h. For the same compound, the EC50 in series [2] came out at 6.8 nM.

Consider `CC(C)(NC(=O)[C@H]1[C@@H]2CNC[C@@H]21)c1ncc2c(F)cccn12.Cl` [Example 133], for which the half-life at 1 μM in series [1] is over 2.17 h. The EC50 in series [2] worked out at 7.1 nM.

In the case of `Cc1cccn2c(C3(NC(=O)[C@H]4[C@@H]5CNC[C@@H]54)CCC3)ncc12` [Example 137], the half-life at 1 μM in series [1] was over 2.17 h. Also, the EC50 in series [2] came out at 0.8 nM.

`CC(C)(NC(=O)[C@H]1[C@@H]2CNC[C@@H]21)c1nc(C(F)(F)F)nc2ccccc12` [Example 139]: in series [1], the half-life at 1 μM was over 2.17 h. Also, in series [2], the EC50 worked out at 10.9 nM.

`COc1cccn2c(C(C)(C)NC(=O)[C@H]3[C@@H]4CNC[C@@H]43)ncc12` [Example 140]: in series [1], the half-life at 1 μM was over 2.17 h. Also, the EC50 in series [2] amounted to 0.6 nM.

Take `CC(C)(NC(=O)[C@H]1[C@@H]2CNC[C@@H]21)c1nc(C2CC2)nc2ccccc12` [Example 141]: the half-life at 1 μM in series [1] was over 2.17 h. Further, the EC50 in series [2] came out at 3.3 nM.

Take `Cc1cccn2c(C(C)(C)NC(=O)[C@H]3[C@@H]4CNC[C@@H]43)nnc12` [Example 142]: the half-life at 1 μM in series [1] was over 2.17 h. The EC50 in series [2] worked out at 4 nM.

`CC(C)(NC(=O)[C@H]1[C@@H]2CNC[C@@H]21)c1ncc2c(Cl)cccn12` [Example 143]: the half-life at 1 μM in series [1] is over 2.17 h. Besides, the EC50 in series [2] turned out to be 0.3 nM.

Turning to `Cc1cccn2c(C3(NC(=O)[C@H]4[C@@H]5CNC[C@@H]54)CC3)ncc12` [Example 145], in series [1], the half-life at 1 μM was over 2.17 h. Further, the EC50 in series [2] turned out to be 0.9 nM.

For the compound `CC(C)(NC(=O)[C@H]1[C@@H]2CNC[C@@H]21)c1ncc2c(C3CC3)cccn12` [Example 146], in series [1], the half-life at 1 μM is over 2.17 h. Besides, in series [2], the EC50 came out at 2.6 nM.
